Data published in publication PMC5337940, “Sansanmycin natural product analogues as potent and selective anti-mycobacterials that inhibit lipid I biosynthesis” (Nature Communications, 2017).
In brackets after ≈: the same amount, converted by molar mass. Like-named read-outs stand apart in the source and are kept apart here.

Key:
[1] = system: Mtb H37Rv; experiment: Resazurin reduction microplate assay, growth inhibition of Mtb H37Rv; format: cell-based, Mycobacterium tuberculosis; conditions: for MIC50: Mycobacterium tuberculosis, H37RV
[2] = target: T1, Mtb MurX (Mycobacterium tuberculosis, UniProt P9WMW7); experiment: Radiochemical (TLC) MurX-MurG coupled inhibition assay in Mtb mc2 6230 membranes; format: biochemical; conditions: for inhibition at 0.2 µM: 200 nM inhibitor, decrease in lipid II formation
[3] = system: HEK293 cells; experiment: Cytotoxicity counter-screen, resazurin reduction microplate assay; format: cell-based; conditions: Homo sapiens, tested up to 200 μM, read-out: MIC50 (HEK293)
[4] = system: Mtb H37Ra in THP-1 cells; experiment: Intracellular assay, Mtb-infected THP-1 macrophages, CFU count; conditions: read-out: IC50 intracellular anti-mycobacterial activity; THP-1 macrophages infected with Mtb (H37Ra), average of 2 independent experiments
[5] = in vitro; format: in vitro ADME; conditions: microsomes; for Average half-life: 0.5 μM; for half-life at 0.5 μM: Average half-life
Description: The metabolic stability was assessed by incubating each test compound (0.5 μM) in duplicate with human and mouse liver microsomes (XenoTech, Kansas City, KS) at 37 °C and 0.4 mg ml^−1 microsomal protein. The metabolic reaction was initiated by the addition of an NADPH-regenerating system and quenched at various time points over a 60 min incubation period by the addition of acetonitrile containing diazepam as internal standard. Control samples (containing no NADPH) were included and quenched at 2, 30 and 60 min to monitor for potential degradation in the absence of cofactor. Samples were centrifuged and the supernatant analysed by LCMS. Analysis was conducted using a Waters Acquity UPLC coupled to a Waters Xevo G2 QTOF mass spectrometer operated in positive electrospray ionization MS^E mode with a cone voltage of 30 V. Samples (5 μl) were injected onto an Ascentis Express Amide column (50 × 2.1 mm, 2.7 μm) and eluted using a water/acetonitrile (both containing 0.05% formic acid) gradient over 4 min at a flow rate of 0.4 ml min^−1. Degradation rate half-lives and in vitro intrinsic clearance values were determined from the first order degradation profiles.

[6] = target: T1, Mtb MurX; experiment: biochemical
[7] = in vitro; format: in vitro ADME; conditions: plasma
Source text: Human blood from nonidentifiable volunteer donors was sourced from the Australian Red Cross Blood Service under a supply agreement approved by the Monash Human Research Ethics Committee. Mouse blood was collected in-house under tissue harvesting protocols approved by the Monash Institute of Pharmaceutical Sciences Animal Ethics Committee. Pooled human and Swiss outbred mouse plasma samples were thawed and spiked with test compound solutions prepared in DMSO/acetonitrile/water (20:40:40) to provide a final compound concentration of 1,000 ng ml^−1 and final DMSO and acetonitrile concentrations of 0.2% and 0.4% (v/v), respectively. Plasma was vortex mixed and aliquots (50 μl) were transferred to fresh microcentrifuge tubes and incubated at 37 °C. At various time points over the 6 h incubation period, duplicate plasma samples were removed and immediately snap-frozen in dry ice. All samples were stored frozen at −80 °C until analysis by LC–MS. Samples were processed by protein precipitation using a two-fold excess of acetonitrile followed by centrifugation. Analysis of the supernate was conducted using a Waters (Milford, MA) Acquity UPLC coupled to a Waters Micromass Quattro Premier mass spectrometer operated in positive electrospray ionization mode with multiple reaction monitoring. The cone voltage was 45 V, collision energy was 30, 30 and 40 V for 25, 36 and 37, respectively, and m/z transitions were 782.30>126.06 (25), 826.32>170.16 (36) and 888.39>126.06 (37). Processed samples (3 μl) were injected onto a Supelco Ascentis Express RP Amide column (50 × 2.1 mm, 2.7 μm) and analytes eluted using a water/acetonitrile (each containing 0.05% formic acid) gradient over 4 min with a flow rate was 0.4 ml min^−1. Sample concentrations were quantitated by comparison to a calibration curve prepared in blank human or mouse plasma.

[8] = system: H37Rv; parameters: method as in Xie et al. 14, 15; conditions: isolated natural products; ref Xie et al. 14, 15; cited from earlier work
[9] = Mtb H37Rv, read-out: MIC50 against Mtb
[10] = average of two independent experiments, each in triplicate, read-out: MIC50 Mtb H37Rv
[11] = average of two independent experiments, each in triplicate

T1 sequence (P9WMW7 whole entry): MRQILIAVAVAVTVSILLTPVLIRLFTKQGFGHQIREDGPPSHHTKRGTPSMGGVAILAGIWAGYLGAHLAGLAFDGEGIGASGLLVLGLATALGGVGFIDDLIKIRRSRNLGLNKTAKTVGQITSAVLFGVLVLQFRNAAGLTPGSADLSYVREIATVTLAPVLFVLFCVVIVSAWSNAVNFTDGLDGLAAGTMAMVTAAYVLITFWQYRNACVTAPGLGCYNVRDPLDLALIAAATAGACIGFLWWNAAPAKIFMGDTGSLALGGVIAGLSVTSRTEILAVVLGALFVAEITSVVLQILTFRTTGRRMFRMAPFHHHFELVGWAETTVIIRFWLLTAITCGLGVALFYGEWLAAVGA

C[C@@H]([C@H](NC(=O)[C@H](CC1CCCCC1)NC(=O)N[C@@H](Cc1c[nH]c2ccccc12)C(=O)O)C(=O)NC[C@H]1C[C@@H](O)[C@H](n2ccc(=O)[nH]c2=O)O1)N(C)C(=O)CN [Compound 25]
MIC50 [1, 9]: 0.08 µM (≈ 0.0625 µg/mL)
MIC50 [1, 10]: 0.08 ± 0.02 µM (≈ 0.0625 µg/mL)
IC50 [2]: 54 nM
inhibition at 0.2 µM [2]: 100%
CC50 [3]: > 200000 nM
IC50 [4]: 1570 nM
microsomal CLint at 0.5 μM ([5]; human): < 7 µL/min/mg
Average half-life ([5]; human): > 2.67 h
half-life at 0.5 μM ([5]; human): > 4.12 h
microsomal CLint at 0.5 μM ([5]; mouse): < 7 µL/min/mg
Average half-life ([5]; mouse): > 2.67 h
half-life at 0.5 μM ([5]; mouse): > 4.12 h
IC50 [6]: 30 nM
half-life at 1000 ng/ml ([7]; Swiss outbred, mouse): > 7 h
half-life at 1000 ng/ml ([7]; human): > 7 h

C[C@@H]([C@H](NC(=O)[C@H](Cc1ccc2ccccc2c1)NC(=O)N[C@@H](Cc1c[nH]c2ccccc12)C(=O)O)C(=O)NC[C@H]1C[C@@H](O)[C@H](n2ccc(=O)[nH]c2=O)O1)N(C)C(=O)CN [Compound 36]
MIC50 [1, 9]: 0.18 µM (≈ 0.149 µg/mL)
MIC50 [1, 10]: 0.18 ± 0.02 µM (≈ 0.149 µg/mL)
IC50 [2]: 48 nM
inhibition at 0.2 µM [2]: 100%
CC50 [3]: > 200000 nM
IC50 [4]: 4330 nM
microsomal CLint at 0.5 μM ([5]; human): < 7 µL/min/mg
Average half-life ([5]; human): > 2.67 h
half-life at 0.5 μM ([5]; human): > 4.12 h
microsomal CLint at 0.5 μM ([5]; mouse): 10 µL/min/mg
Average half-life ([5]; mouse): > 2.67 h
half-life at 0.5 μM ([5]; mouse): 2.77 h
IC50 [6]: 14 nM
half-life at 1000 ng/ml ([7]; Swiss outbred, mouse): > 7 h
half-life at 1000 ng/ml ([7]; human): > 7 h

C[C@@H]([C@H](NC(=O)[C@H](CC[S+](C)[O-])NC(=O)N[C@@H](Cc1c[nH]c2ccccc12)C(=O)O)C(=O)N/C=C1/C[C@@H](O)[C@H](n2ccc(=O)[nH]c2=O)O1)N(C)C(=O)[C@@H](N)c1cccc(O)c1 (stereo partly shown) [Compound 3, Sansanmycin C]
MIC (H37Rv) [8]: > 36.3 µM

C[C@@H]([C@H](NC(=O)[C@H](CC1CCCCC1)NC(=O)N[C@@H](Cc1c[nH]c2ccccc12)C(=O)O)C(=O)NC[C@H]1C[C@@H](O)[C@H](n2ccc(=O)[nH]c2=O)O1)N(C)C(=O)[C@@H](N)Cc1cccc(O)c1 [Compound 37]
MIC50 [1, 9]: 0.037 µM (≈ 0.0329 µg/mL)
MIC50 [1, 10]: 0.037 ± 0.06 µM (≈ 0.0329 µg/mL)
IC50 [2]: 41 nM
inhibition at 0.2 µM [2]: 100%
CC50 [3]: > 200000 nM
IC50 [4]: 110 nM
microsomal CLint at 0.5 μM ([5]; human): 10 µL/min/mg
Average half-life ([5]; human): > 2.67 h
half-life at 0.5 μM ([5]; human): 2.9 h
microsomal CLint at 0.5 μM ([5]; mouse): 7 µL/min/mg
Average half-life ([5]; mouse): > 2.67 h
half-life at 0.5 μM ([5]; mouse): 3.88 h
IC50 [6]: 16 nM
half-life at 1000 ng/ml ([7]; Swiss outbred, mouse): > 7 h
half-life at 1000 ng/ml ([7]; human): > 7 h

CC(C)C[C@H](NC(=O)N[C@@H](Cc1c[nH]c2ccccc12)C(=O)O)C(=O)N[C@H](C(=O)N/C=C1/C[C@@H](O)[C@H](n2ccc(=O)[nH]c2=O)O1)[C@H](C)N(C)C(=O)[C@@H](N)c1cccc(O)c1 [Compound 2, Sansanmycin B]
MIC (H37Rv) [8]: 9.5 µM (≈ 7.9 µg/mL)

CCCCC[C@H](NC(=O)N[C@@H](Cc1c[nH]c2ccccc12)C(=O)O)C(=O)N[C@H](C(=O)NC[C@H]1C[C@@H](O)[C@H](n2ccc(=O)[nH]c2=O)O1)[C@H](C)N(C)C(=O)CN [Compound 23]
MIC50 [1, 10]: 0.51 ± 0.12 µM (≈ 0.385 µg/mL)
inhibition at 0.2 µM [2]: 59%
CC50 [3]: > 200000 nM

tunicamycin [reference compound]
IC50 ([6]; read-out: IC50 Mtb MurX, fluorescence assay): 189 nM

CC(C)C[C@H](NC(=O)N[C@@H](Cc1c[nH]c2ccccc12)C(=O)O)C(=O)N[C@H](C(=O)NC[C@H]1C[C@@H](O)[C@H](n2ccc(=O)[nH]c2=O)O1)[C@H](C)N(C)C(=O)[C@@H](N)Cc1cccnc1 [Compound 8]
MIC50 [1, 10]: 5.85 ± 2.33 µM (≈ 4.87 µg/mL)
inhibition at 0.2 µM [2]: 5%
CC50 [3]: > 200000 nM

CSCC[C@H](NC(=O)N[C@@H](Cc1c[nH]c2ccccc12)C(=O)O)C(=O)N[C@H](C(=O)NC[C@H]1C[C@@H](O)[C@H](n2ccc(=O)[nH]c2=O)O1)[C@H](C)N(C)C(=O)[C@@H](N)c1cccc(O)c1 [Compound 4, Dihydrosansanmycin A]
MIC50 [1, 10]: 0.5 ± 0.05 µM (≈ 0.426 µg/mL)
inhibition at 0.2 µM [2]: 68%
CC50 [3]: > 200000 nM

CC(C)C[C@H](NC(=O)N[C@@H](Cc1c[nH]c2ccccc12)C(=O)O)C(=O)N[C@H](C(=O)NC[C@H]1C[C@@H](O)[C@H](n2ccc(=O)[nH]c2=O)O1)[C@H](C)N(C)C(=O)[C@@H](N)Cc1ccccc1 [Compound 7]
MIC50 [1, 10]: 4.05 ± 0.63 µM (≈ 3.37 µg/mL)
inhibition at 0.2 µM [2]: 27%
CC50 [3]: > 200000 nM

CC(C)C[C@H](NC(=O)N[C@@H](Cc1c[nH]c2ccccc12)C(=O)O)C(=O)N[C@H](C(=O)NC[C@H]1C[C@@H](O)[C@H](n2ccc(=O)[nH]c2=O)O1)[C@H](C)N(C)C(=O)[C@@H](N)CC1CCCCC1 [Compound 10]
MIC50 [1, 10]: 1 ± 0.3 µM (≈ 0.838 µg/mL)
MIC50 Mtb H37Rv [1, 11]: 0.95 to 1.35 µM
inhibition at 0.2 µM [2]: 41%
CC50 [3]: > 200000 nM

C[C@@H]([C@H](NC(=O)[C@@H](NC(=O)N[C@@H](Cc1c[nH]c2ccccc12)C(=O)O)C1CCCCC1)C(=O)NC[C@H]1C[C@@H](O)[C@H](n2ccc(=O)[nH]c2=O)O1)N(C)C(=O)CN [Compound 24]
MIC50 [1, 10]: 0.51 ± 0.1 µM (≈ 0.392 µg/mL)
inhibition at 0.2 µM [2]: 41%
CC50 [3]: > 200000 nM

CC(C)C[C@H](NC(=O)N[C@@H](Cc1c[nH]c2ccccc12)C(=O)O)C(=O)N[C@H](C(=O)NC[C@H]1C[C@@H](O)[C@H](n2ccc(=O)[nH]c2=O)O1)[C@H](C)N(C)C(=O)[C@@H](N)[C@@H](C)O [Compound 17]
MIC50 [1, 10]: 1.35 ± 0.07 µM (≈ 1.06 µg/mL)
MIC50 Mtb H37Rv [1, 11]: 0.95 to 1.35 µM
inhibition at 0.2 µM [2]: 20%
CC50 [3]: > 200000 nM

CC(C)C[C@H](NC(=O)N[C@@H](Cc1c[nH]c2ccccc12)C(=O)O)C(=O)N[C@H](C(=O)NC[C@H]1C[C@@H](O)[C@H](n2ccc(=O)[nH]c2=O)O1)[C@H](C)N(C)C(=O)[C@@H](N)CCCCN [Compound 15]
MIC50 [1, 10]: 1.35 ± 0.07 µM (≈ 1.1 µg/mL)
MIC50 Mtb H37Rv [1, 11]: 0.95 to 1.35 µM
inhibition at 0.2 µM [2]: 7%
CC50 [3]: > 200000 nM

C[C@@H]([C@H](NC(=O)[C@H](CC(=O)O)NC(=O)N[C@@H](Cc1c[nH]c2ccccc12)C(=O)O)C(=O)NC[C@H]1C[C@@H](O)[C@H](n2ccc(=O)[nH]c2=O)O1)N(C)C(=O)CN [Compound 27]
MIC50 ([1]; read-out: MIC50 Mtb H37Rv): > 6.25 µM
inhibition at 0.2 µM [2]: 34%
CC50 [3]: > 200000 nM

CC(C)C[C@H](NC(=O)N[C@@H](Cc1c[nH]c2ccccc12)C(=O)O)C(=O)N[C@H](C(=O)NC[C@H]1C[C@@H](O)[C@H](n2ccc(=O)[nH]c2=O)O1)[C@H](C)N(C)C(=O)[C@@H](N)CCCN [Compound 16]
MIC50 [1, 10]: 0.95 ± 0.07 µM (≈ 0.759 µg/mL)
MIC50 Mtb H37Rv [1, 11]: 0.95 to 1.35 µM
inhibition at 0.2 µM [2]: 5%
CC50 [3]: > 200000 nM
